In PMC8558867, “Development of BromoTag: A “Bump-and-Hole”–PROTAC System to Induce Potent, Rapid, and Selective Degradation of Tagged Target Proteins” (Journal of Medicinal Chemistry, 2021):
Like-named read-outs stand apart in the source and are kept apart here.

Experiments:
BromoTag-Brd2 = test: Dose–response degradation assay (western blot, 6 h) in heterozygous BromoTag-Brd2 HEK293 cells; type: cell-based, human; details: for DC50 / Dmax of BromoTag-Brd2 degradation / hook effect: 6 h; for DC50: read-out: DC50 of BromoTag-Brd2 degradation; for Dmax (%) (Ab: Brd2) / Dmax (%) (Ab: Brd4^BD2 L387A) / pDC50 (Ab: Brd2) / pDC50 (Ab: Brd4^BD2 L387A): BromoTagged-Brd2, 6 h; for pDC50 (Ab: Brd2) / pDC50 (Ab: Brd4^BD2 L387A): mean ±S.E of three independent experiments; for hook effect: higher concentrations of 1–10 μM; for pDmax (%) (Ab: Brd4BD2 L387A) / pDmax (%) (Ab:Brd2): supplementary CSV
Description: All dose–response degradation assays were performed on the genotype-verified heterozygous BromoTag-Brd2 HEK293 cell line. Heterozygous BromoTag-Brd2 HEK293 cells were plated at a density of 5 × 10^5 cells per well of a six-well healthy plate a day before initiation of the titration experiment. PROTAC compounds were dissolved in DMSO at a concentration of 10 mM; from these stock concentrations, PROTAC compounds were diluted to appropriate concentrations using DMSO in the range of 10 μM to 1 nM. […] Control compounds such as MZ1 and cis-MZ1 were similarly dissolved in DMSO to an appropriate concentration. […] The cells were washed twice with PBS before being harvested.
The membranes were blocked for 1 h prior to incubation with the primary antibodies using 5% Milk TBST. […] Following overnight incubation with the primary antibodies at 4 °C, the membranes were incubated with secondary antibodies (anti-rabbit, Abcam AB216773, 1:5000 or anti-mouse, Abcam AB216774, 1:5000) and hFABTM rhodamine anti-tubulin antibody (Biorad, 12004165, 1:10,000) for 1 h and then imaged with a Bio-Rad imager (LI-COR Biosciences). All western blots were analyzed for band intensities using Image Lab from Bio-Rad (LI-COR, Biosciences). The data extracted from these blots were then plotted and analyzed using Prism (v. 8.2.0, GraphPad).

[1] = system: untagged Brd2, Brd3, Brd4; test: Off-target degradation of endogenous BET proteins (western blot) in heterozygous BromoTag-Brd2 HEK293 cells; type: cell-based, human
Text: To establish the BromoTag platform and support the degrader structure–activity relationships (SARs) to identify the best compound, we sought a practical and simple system that enables us to best optimize not only the degradation efficiency but also the selectivity profile of our degraders. To this end, the endogenous BET family protein Brd2 was chosen as a model target due to the availability of a well-established antibody for Brd2 detection, and the expression of a single protein isoform detected as a single band in the western blot.[24] Because Brd2 contains endogenous bromodomains and is degraded by 1 and other BET PROTACs, we reasoned that a heterozygous knock-in cell line allows us to monitor simultaneously both on-target degradation (BromoTagged-Brd2) and off-target degradation (untagged Brd2) using the same antibody. Together with the potential off-target degradation of the other BET proteins Brd3 and Brd4, this system thus enables us to best monitor protein degradation selectivity. We therefore decided to add the BromoTag at the N-terminus of the endogenous Brd2 gene locus using CRISPR knock-in methodologies, thereby yielding a chimeric protein bearing three bromodomains (the exogenous BromoTag, in addition to the endogenous Brd2^BD1 and Brd2^BD2). Hereafter, we refer to on-target activity as the degradation of BromoTag-Brd2 and off-target activity as any degradation of either untagged Brd2 or endogenous Brd3 or Brd4.
All dose–response degradation assays were performed on the genotype-verified heterozygous BromoTag-Brd2 HEK293 cell line. Heterozygous BromoTag-Brd2 HEK293 cells were plated at a density of 5 × 10^5 cells per well of a six-well healthy plate a day before initiation of the titration experiment. PROTAC compounds were dissolved in DMSO at a concentration of 10 mM; from these stock concentrations, PROTAC compounds were diluted to appropriate concentrations using DMSO in the range of 10 μM to 1 nM. The compounds were then added to 2 mL of DMEM (Invitrogen, Carlsbad, CA, USA) supplemented with 10% (v/v) FBS (Thermo Fisher, Waltham, MA, USA) and 1% (v/v) penicillin/streptomycin (pen/strep) (#15140122, Thermo Fisher, Waltham, MA, USA) and added to the cells while initiating the experiment. Control compounds such as MZ1 and cis-MZ1 were similarly dissolved in DMSO to an appropriate concentration. All titration experiments were performed for a total of 6 h prior to being harvested and were kept at 37 °C, 5% CO2, and 95% humidity once treatment was applied until right before harvesting. The cells were washed twice with PBS before being harvested.
All cells were harvested on ice with RIPA lysis and extraction buffer (Thermo Fisher Scientific, 89901) supplemented with protease inhibitor cocktail (Merck, 11697498001) and Benzonase Nuclease (Sigma, E1014) before being stored at −20 °C prior to use. Total protein quantity was determined using the BCA protein assay (#23225, Pierce, Rockford, Illinois). The protein concentration was determined using the BCA assay (Thermo Fisher Scientific, 23225). The samples were then prepared and loaded onto NuPAGE 4–12% bis–tris Midi gels (Thermo Fisher Scientific, WG1403A), followed by the transfer of proteins onto nitrocellulose membranes (EMD Millipore). The membranes were blocked for 1 h prior to incubation with the primary antibodies using 5% Milk TBST. The membranes were probed for Brd2 (Abcam, Ab139690, 1:1000), Brd3 (Abcam, Ab50818, 1:4000), Brd4 (Abcam, Ab128874, 1:1000), or our polyclonal Brd4^BD2 L387A antibody. Following overnight incubation with the primary antibodies at 4 °C, the membranes were incubated with secondary antibodies (anti-rabbit, Abcam AB216773, 1:5000 or anti-mouse, Abcam AB216774, 1:5000) and hFABTM rhodamine anti-tubulin antibody (Biorad, 12004165, 1:10,000) for 1 h and then imaged with a Bio-Rad imager (LI-COR Biosciences). All western blots were analyzed for band intensities using Image Lab from Bio-Rad (LI-COR, Biosciences). […]

[2] = diastereomeric mixtures, range over the two antibodies
[3] = 1 nM to 10 μM, 6 h, diastereomeric mixtures

Structure (SMILES): CCC(C(=O)NCCOCCCOCC(=O)N[C@H](C(=O)N1C[C@H](O)C[C@H]1C(=O)N[C@@H](C)c1ccc(-c2scnc2C)cc1)C(C)(C)C)C1N=C(c2ccc(Cl)cc2)c2c(sc(C)c2C)-n2c(C)nnc21 (relative stereo) [ET-ARV-771 (21), (2S,4R)-1-((2S,15R*)-2-(tert-Butyl)-15-((S*)-4-(4-chlorophenyl)-2,3,9-trimethyl-6H-thieno[3,2-f][1,2,4]triazolo[4,3-a][1,4]diazepin-6-yl)-4,14-dioxo-6,10-dioxa-3,13-diazaheptadecanoyl)-4-hydroxy-N-((S)-1-(4-(4-methylthiazol-5-yl)phenyl)ethyl)pyrrolidine-2-carboxamide]
- DC50 (BromoTag-Brd2; diastereomeric mixture): ~1000 nM
- Dmax of BromoTag-Brd2 degradation (BromoTag-Brd2; diastereomeric mixtures): < 70%
- Dmax (%) (Ab: Brd2) (BromoTag-Brd2; diastereomeric mixtures): 51%
- Dmax (%) (Ab: Brd4^BD2 L387A) (BromoTag-Brd2; diastereomeric mixtures): 69%
- pDC50 (Ab: Brd2) (BromoTag-Brd2; diastereomeric mixtures): 5.7 ± 1.8
- pDC50 (Ab: Brd4^BD2 L387A) (BromoTag-Brd2; diastereomeric mixtures): 6.1 ± 0.3
- hook effect (BromoTag-Brd2; diastereomeric mixtures): strong hook effect
- pDmax (%) (Ab: Brd4BD2 L387A) (BromoTag-Brd2): 69%
- pDmax (%) (Ab:Brd2) (BromoTag-Brd2): 51%

Structure (SMILES): CCC(C(=O)NCCOCCOCCOCC(=O)N[C@H](C(=O)N1C[C@H](O)C[C@H]1C(=O)NCc1ccc(-c2scnc2C)cc1)C(C)(C)C)C1N=C(c2ccc(Cl)cc2)c2c(sc(C)c2C)-n2c(C)nnc21 (relative stereo) [ET-MZ1 (19), (2S,4R)-1-((2S,17R*)-2-(tert-Butyl)-17-((S*)-4-(4-chlorophenyl)-2,3,9-trimethyl-6H-thieno[3,2-f][1,2,4]triazolo[4,3-a][1,4]diazepin-6-yl)-4,16-dioxo-6,9,12-trioxa-3,15-diazanonadecanoyl)-4-hydroxy-N-(4-(4-methylthiazol-5-yl)benzyl)pyrrolidine-2-carboxamide]
- pDC50 (Ab: Brd2) (BromoTag-Brd2; diastereomeric mixtures): 6.5 ± 0.2
- pDC50 (Ab: Brd4^BD2 L387A) (BromoTag-Brd2; diastereomeric mixtures): 6.6 ± 0.6
- hook effect (BromoTag-Brd2; diastereomeric mixtures): no hook effect
- DC50 (BromoTag-Brd2; [2]): 250 to 360 nM
- off-target degradation of untagged Brd2 or the other endogenous BET proteins [1]: no observable off-target degradation

Structure (SMILES): CC[C@@H](C(=O)OCCOCCCOCC(=O)N[C@H](C(=O)N1C[C@H](O)C[C@H]1C(=O)N[C@@H](C)c1ccc(-c2scnc2C)cc1)C(C)(C)C)[C@@H]1N=C(c2ccc(Cl)cc2)c2c(sc(C)c2C)-n2c(C)nnc21 (relative stereo) [ET-OARV-771 (25), 2-(3-(2-(((S)-1-((2S,4R)-4-Hydroxy-2-(((S)-1-(4-(4-methylthiazol-5-yl)phenyl)ethyl)carbamoyl)pyrrolidin-1-yl)-3,3-dimethyl-1-oxobutan-2-yl)amino)-2-oxoethoxy)propoxy)ethyl (R*)-2-((S*)-4-(4-chlorophenyl)-2,3,9-trimethyl-6H-thieno[3,2-f][1,2,4]triazolo[4,3-a][1,4]diazepin-6-yl)butanoate]
- Dmax of BromoTag-Brd2 degradation (BromoTag-Brd2; diastereomeric mixtures): > 75%
- hook effect (BromoTag-Brd2; diastereomeric mixtures): strong onset of the hook effect
- DC50 (BromoTag-Brd2; [2]): 13 to 16 nM
- off-target degradation of untagged Brd2 or the other endogenous BET proteins [1]: minor off-target degradation of Brd3

Structure (SMILES): CCC(C(=O)OCCOCCOCCOCC(=O)N[C@H](C(=O)N1C[C@H](O)C[C@H]1C(=O)NCc1ccc(-c2scnc2C)cc1)C(C)(C)C)C1N=C(c2ccc(Cl)cc2)c2c(sc(C)c2C)-n2c(C)nnc21 (relative stereo) [ET-OMZ1 (23), (S)-13-((2S,4R)-4-Hydroxy-2-((4-(4-methylthiazol-5-yl)benzyl)carbamoyl)pyrrolidine-1-carbonyl)-14,14-dimethyl-11-oxo-3,6,9-trioxa-12-azapentadecyl (R*)-2-((S*)-4-(4-chlorophenyl)-2,3,9-trimethyl-6H-thieno[3,2-f][1,2,4]triazolo[4,3-a][1,4]diazepin-6-yl)butanoate]
- Dmax of BromoTag-Brd2 degradation (BromoTag-Brd2; diastereomeric mixtures): > 75%
- pDC50 (Ab: Brd2) (BromoTag-Brd2; diastereomeric mixtures): 7.9 ± 0.2
- pDC50 (Ab: Brd4^BD2 L387A) (BromoTag-Brd2; diastereomeric mixtures): 7.1
- hook effect (BromoTag-Brd2; diastereomeric mixtures): strong onset of the hook effect
- DC50 (BromoTag-Brd2; [2]): 13 to 80 nM
- off-target degradation of untagged Brd2 or the other endogenous BET proteins [1]: no observable off-target degradation

Structure (SMILES): Cc1ncsc1-c1ccc([C@H](C)NC(=O)[C@@H]2C[C@@H](O)CN2C(=O)[C@@H](NC(=O)COCCCOCCNC(=O)C(C)C2N=C(c3ccc(Cl)cc3)c3c(sc(C)c3C)-n3c(C)nnc32)C(C)(C)C)cc1 (relative stereo) [ME-ARV-771 (20), (2S,4R)-1-((2S,15R*)-2-(tert-Butyl)-15-((S*)-4-(4-chlorophenyl)-2,3,9-trimethyl-6H-thieno[3,2-f][1,2,4]triazolo[4,3-a][1,4]diazepin-6-yl)-4,14-dioxo-6,10-dioxa-3,13-diazahexadecanoyl)-4-hydroxy-N-((S)-1-(4-(4-methylthiazol-5-yl)phenyl)ethyl)pyrrolidine-2-carboxamide]
- Dmax (%) (Ab: Brd2) (BromoTag-Brd2; diastereomeric mixtures): 60%
- Dmax (%) (Ab: Brd4^BD2 L387A) (BromoTag-Brd2; diastereomeric mixtures): 70%
- pDC50 (Ab: Brd2) (BromoTag-Brd2; diastereomeric mixtures): 6.4 ± 0.6
- pDC50 (Ab: Brd4^BD2 L387A) (BromoTag-Brd2; diastereomeric mixtures): 6.5 ± 0.4
- pDmax (%) (Ab: Brd4BD2 L387A) (BromoTag-Brd2): 70%
- pDmax (%) (Ab:Brd2) (BromoTag-Brd2): 60%
- off-target degradation of untagged Brd2 or the other endogenous BET proteins [1, 3]: induced undesired off-target degradation

Structure (SMILES): Cc1ncsc1-c1ccc(CNC(=O)[C@@H]2C[C@@H](O)CN2C(=O)[C@@H](NC(=O)COCCOCCOCCNC(=O)C(C)C2N=C(c3ccc(Cl)cc3)c3c(sc(C)c3C)-n3c(C)nnc32)C(C)(C)C)cc1 (relative stereo) [ME-MZ1 (18), (2S,4R)-1-((2S,17R*)-2-(tert-Butyl)-17-((S*)-4-(4-chlorophenyl)-2,3,9-trimethyl-6H-thieno[3,2-f][1,2,4]triazolo[4,3-a][1,4]diazepin-6-yl)-4,16-dioxo-6,9,12-trioxa-3,15-diazaoctadecanoyl)-4-hydroxy-N-(4-(4-methylthiazol-5-yl)benzyl)pyrrolidine-2-carboxamide]
- pDmax (%) (Ab: Brd4BD2 L387A) (BromoTag-Brd2): 90%
- pDmax (%) (Ab:Brd2) (BromoTag-Brd2): 92%
- off-target degradation of untagged Brd2 or the other endogenous BET proteins [1, 3]: induced undesired off-target degradation

Structure (SMILES): Cc1ncsc1-c1ccc([C@H](C)NC(=O)[C@@H]2C[C@@H](O)CN2C(=O)[C@@H](NC(=O)COCCCOCCOC(=O)C(C)C2N=C(c3ccc(Cl)cc3)c3c(sc(C)c3C)-n3c(C)nnc32)C(C)(C)C)cc1 (relative stereo) [ME-OARV-771 (24), 2-(3-(2-(((S)-1-((2S,4R)-4-Hydroxy-2-(((S)-1-(4-(4-methylthiazol-5-yl)phenyl)ethyl)carbamoyl)pyrrolidin-1-yl)-3,3-dimethyl-1-oxobutan-2-yl)amino)-2-oxoethoxy)propoxy)ethyl (R*)-2-((S*)-4-(4-chlorophenyl)-2,3,9-trimethyl-6H-thieno[3,2-f][1,2,4]triazolo[4,3-a][1,4]diazepin-6-yl)propanoate]
- pDmax (%) (Ab: Brd4BD2 L387A) (BromoTag-Brd2): 91%
- pDmax (%) (Ab:Brd2) (BromoTag-Brd2): 91%
- off-target degradation of untagged Brd2 or the other endogenous BET proteins [1, 3]: induced undesired off-target degradation

Structure (SMILES): Cc1ncsc1-c1ccc(CNC(=O)[C@@H]2C[C@@H](O)CN2C(=O)[C@@H](NC(=O)COCCOCCOCCOC(=O)[C@H](C)[C@@H]2N=C(c3ccc(Cl)cc3)c3c(sc(C)c3C)-n3c(C)nnc32)C(C)(C)C)cc1 (relative stereo) [ME-OMZ1 (22), (S)-13-((2S,4R)-4-Hydroxy-2-((4-(4-methylthiazol-5-yl)benzyl)carbamoyl)pyrrolidine-1-carbonyl)-14,14-dimethyl-11-oxo-3,6,9-trioxa-12-azapentadecyl (R*)-2-((S*)-4-(4-chlorophenyl)-2,3,9-trimethyl-6H-thieno[3,2-f][1,2,4]triazolo[4,3-a][1,4]diazepin-6-yl)propanoate]
- pDmax (%) (Ab: Brd4BD2 L387A) (BromoTag-Brd2): 94%
- pDmax (%) (Ab:Brd2) (BromoTag-Brd2): 96%
- off-target degradation of untagged Brd2 or the other endogenous BET proteins [1, 3]: induced undesired off-target degradation
